From patent US10941216B2, “Engineered polypeptide conjugates and methods for making thereof using transglutaminase” (PFIZER INC., priority 2010, dated 2021) come the findings set out here.

Where two headings read alike, the source gives them in different places. Numbered stars: 1 amine (or outer) side, 2 acyl side, 3 side chain; on linkers, the order of the positions; unused ones are H or OH. Square brackets hold non-standard residues; d marks the D form. Peptide text beside a SMILES is read from it. * marks the point of attachment. ξ: configuration not given here. Dolaproine = CO[C@@H]([C@@H]1CCCN1)[C@@H](C)C(=O)O; X1 = COC([C@@H](C)C(=O)[*:2])[C@@H]1CCCN1[*:1]; Dil = CC[C@H](C)[C@H](NC)[C@@H](CC(=O)O)OC; PABC = O=C(OCc1ccc(N[*:1])cc1)[*:2]; Doe = c1ccc(C[C@H](N*)c2nccs2)cc1; X2 = C[C@@H](N*)[C@@H](O)c1ccccc1; Cit = NC(=O)NCCC[C@H](N)C(=O)O; NMeV = CN[C@H](C(=O)O)C(C)C; PEG3 = NCCOCCOCCOCCC(=O)O; ξK = NCCCCC(N)C(=O)O; Ahx = NCCCCCC(=O)O; βAla = NCCC(=O)O

Assay in all cases: In vitro cytotoxicity, CellTiter-Glo
Common to all, as to assay type: cell-based
(In general: ATP-based viability assays read luminescence as a measure of living cells.)

Assay [1] deals with SW620 cells. The settings on record: Homo sapiens. Here is the method: (§1) In vitro cytotoxicity assays were carried out using various antibodies, payloads (i.e., agent moieties), and amine donor units. For mAb2 (a chimeric IgG1 antibody), target expressing (A431, OVCAR3, BxPC3 and HT-29) or non-expressing (SW620) cells were seeded on white walled clear bottom plates at 2000 cells/well for 24 hours before treatment. […] Cell viability was determined by CellTiter-Glo® Luminescent Cell Viability Assay 96 (Promega, Madison Wis.) 96 hours after treatment. […] IC50 was calculated by Prism software.

In assay [2] the test system is BxPC3 cells. The settings on record: Homo sapiens, BXPC-3, 96 h, read-out: BxPC3 Antibody IC50 (nM). Here is the method:
as §1

Assay [3] has as its system A431 cells. The settings on record: Homo sapiens. The procedure: as §1
Assay [4] has as its system HT-29 cells. The settings on record: Homo sapiens; HT-29, target expressing, 96 hours; read-out: HT-29 Antibody IC50. The procedure:
as §1

The mark [5] stands for this setting: SW-620, SW620, target non-expressing, 96 hours, read-out: SW620 Antibody IC50.
[6] abbreviates: A-431, A431, target expressing, 96 hours, read-out: A431 Antibody IC50.
The mark [7] stands for this setting: A-431, 96 h, read-out: A431 Antibody IC50 (nM).

Take `CC[C@H](C)[C@@H]([C@@H](CC(=O)N1CCC[C@H]1C(OC)[C@@H](C)C(=O)N[C@@H](Cc1ccccc1)C(=O)O)OC)N(C)C(=O)[C@@H](NC(=O)[C@H](C(C)C)N(C)C(=O)CCCCCN)C(C)C` (stereo partly drawn) [Sample 23, Aminocaproyl-MMAF] (H-[Ahx][NMeV]V[Dil][X1]F-OH): the IC50 in assay [1] (setting [5]) worked out at 0.01 nM; in assay [2], 0.28 nM.
For `CC[C@H](C)[C@@H]([C@@H](CC(=O)N1CCC[C@H]1[C@H](OC)[C@@H](C)C(=O)N[C@@H](Cc1ccccc1)C(=O)O)OC)N(C)C(=O)[C@@H](NC(=O)[C@H](C(C)C)N(C)C(=O)OCc1ccc(NC(=O)[C@H](CCCNC(N)=O)NC(=O)[C@@H](NC(=O)CCCCCN)C(C)C)cc1)C(C)C` [Sample 24, VC-PABC-MMAF] (H-[Ahx]V[Cit][PABC][NMeV]V[Dil][Dolaproine]F-OH), the half-inhibitory concentration (IC50) in assay [1] (SW-620, 96 h, read-out: SW620 Antibody IC50 (nM)) amounted to 483 nM; in assay [2] it was 427 nM.
On to `CO[C@H]1/C=C\C=C(/C)C(=O)NC2=CC(=O)C(NCCCCN)=C(C[C@@H](C)C[C@H](OC)[C@H](O)[C@@H](C)/C=C(\C)[C@@H]1OC(N)=O)C2=O` [Sample 25, Putrescinyl-Geldanamycin], for which the concentration for half-maximal inhibition (IC50) in assay [3] (setting [6]) is more than 1000 nM; in assay [1] (setting [5]) it was more than 1000 nM; in assay [4], 318 nM.
As to `CC[C@H](C)[C@@H]([C@@H](CC(=O)N1CCC[C@H]1[C@H](OC)[C@@H](C)C(=O)N[C@@H](Cc1ccccc1)c1nccs1)OC)N(C)C(=O)[C@@H](NC(=O)[C@H](C(C)C)N(C)C(=O)OCc1ccc(NC(=O)[C@H](CCCNC(N)=O)NC(=O)[C@@H](NC(=O)[C@H](CCCCN)NC(C)=O)C(C)C)cc1)C(C)C` [Sample 27, AcLys-VC-PABC-MMAD] (Ac-KV[Cit][PABC][NMeV]V[Dil][Dolaproine]-Doe), the IC50 in assay [3] (setting [7]) is 0.003 nM; in assay [4] it was 0.189 nM.
For `CC[C@H](C)[C@@H]([C@@H](CC(=O)N1CCC[C@H]1[C@H](OC)[C@@H](C)C(=O)N[C@@H](Cc1ccccc1)c1nccs1)OC)N(C)C(=O)[C@@H](NC(=O)[C@H](C(C)C)N(C)C(=O)CCCCCN)C(C)C` [Sample 28, Aminocaproyl-MMAD] (H-[Ahx][NMeV]V[Dil][Dolaproine]-Doe), the results for the 50% inhibitory concentration (IC50) in assay [3] (setting [6]) and in assay [4] were 146 nM and 97.5 nM, respectively.
In the same order, the values of `CC[C@H](C)[C@@H]([C@@H](CC(=O)N1CCC[C@H]1[C@H](OC)[C@@H](C)C(=O)N[C@@H](Cc1ccccc1)c1nccs1)OC)N(C)C(=O)[C@@H](NC(=O)[C@H](C(C)C)N(C)C(=O)CCNC(=O)C(CCCCN)NC(C)=O)C(C)C` (stereo partly drawn) [Sample 30, AcLys-β-Ala-MMAD] (Ac-[ξK][βAla][NMeV]V[Dil][Dolaproine]-Doe) are 98.5 nM and 59.5 nM.
For the compound `CC[C@H](C)[C@@H]([C@@H](CC(=O)N1CCC[C@H]1[C@H](OC)[C@@H](C)C(=O)N[C@H](C)[C@@H](O)c1ccccc1)OC)N(C)C(=O)[C@@H](NC(=O)[C@H](C(C)C)N(C)C(=O)CCOCCOCCOCCN)C(C)C` [Sample 33, Amino-PEG3-C2-MMAE] (H-[PEG3][NMeV]V[Dil][Dolaproine]-X2), the IC50 in assay [3] (setting [7]) was determined as 258 nM; in assay [4], 211 nM.

What is called IC50 is the concentration needed to halve the response being measured.
